Earlier results in US20120172333A1, “PYRROLO-PYRIDINE DERIVATIVES AS ACTIVATORS OF AMPK” (GLAXOSMITHKLINE LLC, priority 2009, published 2012).

Tested on: ob/ob and db/db mice
Conditions: 8 day administration

NC(=O)c1ncn([C@@H]2O[C@H](CO)[C@@H](O)[C@H]2O)c1N [AICAR]
reduction of blood glucose: 35%
